Assay results published in publication PMC6136390, “Coptisine-induced inhibition of Helicobacter pylori: elucidation of specific mechanisms by probing urease active site and its maturation process” (Journal of Enzyme Inhibition and Medicinal Chemistry, 2018).
In brackets after ≈: the same amount, converted by molar mass. Like-named read-outs stand apart in the source and are kept apart here.

Columns and labels:
H. pylori urease (HPU) = target: T1, H. pylori urease (HPU) (Helicobacter pylori, UniProt P69996); test: Urease inhibition assay in vitro (modified Berthelot method); format: biochemical; settings: 20 min pre-incubation at 37 °C, 150 mM urea, pH 7.5; read-out: IC50 for HPU
T1 construct: Crude HPU was obtained according to the method described by Matsubara et al; endogenous in cells; host or cells: cultured Helicobacter pylori (strain not specified)
T1 sequence (P69996 whole entry): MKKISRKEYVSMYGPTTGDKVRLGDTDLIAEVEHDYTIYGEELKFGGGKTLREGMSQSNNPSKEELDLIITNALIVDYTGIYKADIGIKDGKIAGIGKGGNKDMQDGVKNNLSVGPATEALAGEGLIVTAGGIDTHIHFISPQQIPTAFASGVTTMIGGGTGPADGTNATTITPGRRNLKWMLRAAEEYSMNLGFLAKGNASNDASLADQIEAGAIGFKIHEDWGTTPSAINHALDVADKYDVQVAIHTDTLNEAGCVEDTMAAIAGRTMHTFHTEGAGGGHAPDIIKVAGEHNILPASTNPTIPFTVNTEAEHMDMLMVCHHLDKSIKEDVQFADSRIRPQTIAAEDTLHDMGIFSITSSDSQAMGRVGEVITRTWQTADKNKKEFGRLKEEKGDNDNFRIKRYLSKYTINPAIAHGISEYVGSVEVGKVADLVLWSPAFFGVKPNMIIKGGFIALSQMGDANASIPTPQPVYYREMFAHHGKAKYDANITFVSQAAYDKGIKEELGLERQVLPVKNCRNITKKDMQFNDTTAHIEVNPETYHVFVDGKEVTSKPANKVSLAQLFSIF
T1 sequence (P14916 whole entry, further chain): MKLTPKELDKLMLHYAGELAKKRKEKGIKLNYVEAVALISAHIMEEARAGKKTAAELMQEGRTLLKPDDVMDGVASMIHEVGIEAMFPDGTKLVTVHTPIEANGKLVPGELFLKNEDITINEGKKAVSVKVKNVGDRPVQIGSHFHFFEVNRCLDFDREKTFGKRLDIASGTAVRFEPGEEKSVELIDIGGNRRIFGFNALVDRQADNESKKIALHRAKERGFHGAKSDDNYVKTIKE
Experimental: (§1) All strains were cultured in Columbia agar base containing 7% sheep blood at 37 °C in a micro-aerophilic environment (5% O2, 10% CO2, and 85% N2). After 3 days, H. pylori was scraped and suspended in phosphate buffered saline (PBS). Turbidimetry was employed to adjust the concentrations of different H. pylori strains (turbidity equivalent to 1.0 McFarland standard). Crude HPU was obtained according to the method described by Matsubara et al.[42]
This assay was performed using the modified Berthelot method (phenol-hypochlorite) in 96 well plates. At the beginning of each reaction, different concentrations of urease solution and 150 mM urea as a substrate were mixed in 20 mM HEPES buffer (pH 7.5) at 37 °C. After a 20-min reaction, urease activity was tested by measuring the concentration of ammonia produced by the reaction at 595 nm using the microplate reader (Thermo Fisher Multiskan FC, Instruments, Inc., USA) at ambient temperature. […] One unit (U) of urease activity was defined as the amount of urease required to catalyse 1 μmol urea per min. […]
Coptisine’s ability to inhibit urease activity was determined by measuring amounts of ammonia produced using the modified Berthelot method described above. […] Residual activity (RA %) for each assay was calculated using the following equation: RA % = (activity with inhibitors/activity without inhibitors) × 100%. […]

jack bean urease (JBU) = target: T2, jack bean urease (JBU) (Canavalia ensiformis, UniProt P07374); test: as above; format: biochemical; settings: 20 min pre-incubation at 37 °C, 150 mM urea, pH 7.5; read-out: IC50 for JBU
T2 construct: purchased Sigma Aldrich (Steineheim, Germany) type III (catalogue number not given)
T2 sequence (P07374 whole entry, looked up): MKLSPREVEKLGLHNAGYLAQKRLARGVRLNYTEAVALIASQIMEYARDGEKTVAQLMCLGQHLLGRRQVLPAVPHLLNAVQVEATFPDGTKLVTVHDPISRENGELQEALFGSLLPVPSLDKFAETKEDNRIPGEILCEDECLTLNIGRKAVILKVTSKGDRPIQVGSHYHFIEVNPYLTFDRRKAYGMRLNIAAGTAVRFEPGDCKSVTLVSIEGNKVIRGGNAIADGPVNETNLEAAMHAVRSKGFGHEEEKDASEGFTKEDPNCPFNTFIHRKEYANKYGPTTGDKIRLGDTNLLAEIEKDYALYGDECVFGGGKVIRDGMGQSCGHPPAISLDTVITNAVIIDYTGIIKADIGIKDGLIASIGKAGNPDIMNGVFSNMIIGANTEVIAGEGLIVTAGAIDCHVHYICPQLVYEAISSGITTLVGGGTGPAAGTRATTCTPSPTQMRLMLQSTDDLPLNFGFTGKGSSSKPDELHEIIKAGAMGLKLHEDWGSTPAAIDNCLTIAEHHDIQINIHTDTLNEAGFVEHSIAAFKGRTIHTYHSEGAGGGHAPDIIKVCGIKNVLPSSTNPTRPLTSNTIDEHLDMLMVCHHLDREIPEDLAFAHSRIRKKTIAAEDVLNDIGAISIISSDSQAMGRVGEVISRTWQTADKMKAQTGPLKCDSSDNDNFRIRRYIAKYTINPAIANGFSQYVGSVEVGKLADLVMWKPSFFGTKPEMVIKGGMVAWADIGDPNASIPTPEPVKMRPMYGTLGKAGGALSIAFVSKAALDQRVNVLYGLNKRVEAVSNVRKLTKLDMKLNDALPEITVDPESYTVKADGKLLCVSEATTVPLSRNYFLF
Experimental: This assay was performed using the modified Berthelot method (phenol-hypochlorite) in 96 well plates. At the beginning of each reaction, different concentrations of urease solution and 150 mM urea as a substrate were mixed in 20 mM HEPES buffer (pH 7.5) at 37 °C. After a 20-min reaction, urease activity was tested by measuring the concentration of ammonia produced by the reaction at 595 nm using the microplate reader (Thermo Fisher Multiskan FC, Instruments, Inc., USA) at ambient temperature. […] One unit (U) of urease activity was defined as the amount of urease required to catalyse 1 μmol urea per min. These experiments were repeated in triplicate.
Coptisine’s ability to inhibit urease activity was determined by measuring amounts of ammonia produced using the modified Berthelot method described above. The assay mixture, which contained 200 μL of enzyme and 200 μL of coptisine solution (0.16–2.51 mM) in 200 μL of 20 mM HEPES buffer (pH 7.5), was incubated for 20 min at 37 °C in 96-well plates. The reaction was then initiated by adding urea solution (150 mM) to determine residual urease activity. AHA was used as a standard urease inhibitor. […] Residual activity (RA %) for each assay was calculated using the following equation: RA % = (activity with inhibitors/activity without inhibitors) × 100%. […]

H. pylori cells (SS1) = test: pH shock experiment in vivo (urea-dependent survival of H. pylori); format: cell-based, Helicobacter pylori; settings: 30 min; for surviving bacteria, pH =1: 100 mM HCl pH 1, 5 mM urea; for surviving bacteria, pH =7.2: PBS pH 7.2, 5 mM urea; for inhibition at 100 µM: Helicobacter pylori, 0.5 h
Experimental: H. pylori cells (SS1) were harvested, and the concentration was adjusted to Mc = 4 with saline. Then, bacterial samples were mixed with AHA (positive control, 5 mM) or one of the five alkaloids from Rhizoma Coptidis (coptisine, berberine, jatrorrhizine, epiberberine, and palmatine) in 100 mM HCl (pH = 1) or PBS (pH = 7.2) at 37 °C with or without 5 mM urea. After 30 min of incubation, bacteria were collected by centrifugation at 2000g for 10 min and resuspended in the same volume of PBS. A dilution series (1:1–1:10000) was made from the samples, and the dilutions were plated on solid agar for 5 days to form single colony. Samples from urea-free wells were used as controls. Results are expressed as CFU/mL; the experiment was repeated in triplicate. Inhibition rate was calculated using the following equation: Inhibition rate = (Urea group bacterial mean − X group bacterial mean)/Urea group bacterial mean ×100%, where X represents each experimental group.

urease = tested on: urease; parameters: method as in PMID 26669678; settings: cited from earlier work
H. pylori strains = test: Minimal inhibitory concentration assay (agar dilution); format: cell-based, Helicobacter pylori; settings: Helicobacter pylori, NCTC11637; standard strain NCTC 11637, pH 7.2; read-out: MIC
From the text: Fourteen H. pylori strains were used in this study. NCTC 11637 and NCTC 26695 strains were purchased from American Type Culture Collection. Sydney Strain-1 (SS1) was kindly provided by Prof. Richard Ferrero of Monash University, Australia. Clinical isolate ICDC 111001 was provided by Prof. Zhang Jian-zhong of the Chinese Center for Disease Control and Prevention, China. Ten clinical isolates (Hp1868, Hp1869, Hp1870, Hp1871, Hp1872, Hp1873, Hp1874, Hp1875, Hp1876, and Hp1877) were obtained from Renji Hospital, Shanghai Jiaotong University.
as §1
In this study, different concentrations (12.5, 25, 50, and 100 μg/mL) of berberine, palmatine, epiberberine, jatrorrhizine, and coptisine were used to evaluate antimicrobial activity against the standard H. pylori strain NCTC 11637. The agar dilution method was then used to analyse the antibacterial effects of coptisine against two H. pylori standard strains (SS1 and NCTC 26695) and eleven clinical isolates (ICDC 111001, HP 1868, HP 1869, HP 1870, HP 1871, HP 1872, HP 1873, HP 1874, HP 1875, HP 1876, and HP 1877). In this assay, 100 μL of H. pylori suspension (McFarland = 1.0) was added to the test compound-containing or DMSO-containing (control) Columbia blood agar plate. CLR and MET were used as positive controls in this experiment. Minimum inhibitory concentration (MIC) was defined as the lowest concentration at which no strain growth was observed by visual examination after 3 days. This experiment was repeated twice.

[1] = 100 μM compound, pH 1, 5 mM urea
[2] = 100 μM compound, pH 7.2, 5 mM urea
[3] = 100 μM compound, pH 1, 5 mM urea, read-out: Inhibition rate, pH =1
[4] = 100 μM compound, pH 7.2, 5 mM urea, read-out: Inhibition rate, pH =7.2

Row | SMILES | IC50 (H. pylori urease (HPU)) [µM] | IC50 (jack bean urease (JBU)) [µM] | surviving bacteria, pH =1 (H. pylori cells (SS1); 5 mM compound) [CFU/mL] | surviving bacteria, pH =7.2 (H. pylori cells (SS1); 5 mM compound) | Inhibition rate, pH =1 (H. pylori cells (SS1); 5 mM compound, pH 1, 5 mM urea) [%] | Inhibition rate, pH =7.2 (H. pylori cells (SS1); 5 mM compound, pH 7.2, 5 mM urea) [%] | inhibitory activity against urease (urease) | MIC (H. pylori strains) [µg/mL] | surviving bacteria, pH =1 (H. pylori cells (SS1); 100 μM compound) [CFU/mL] | surviving bacteria, pH =7.2 (H. pylori cells (SS1); 100 μM compound) | Inhibition rate, pH =1 (H. pylori cells (SS1); [1]) | Inhibition rate, pH =7.2 (H. pylori cells (SS1); [2]) | inhibition at 100 µM (H. pylori cells (SS1); [3]) [%] | inhibition at 100 µM (H. pylori cells (SS1); [4]) [%]
1 | CC(=O)NO [Acetohydroxamic acid, reference compound] | 90 ± 10 | 20 ± 10 | 0 ± 0 | 1.7 ± 0.4 ×10^4 CFU/mL | 100 | 0 |  |  |  |  |  |  |  | 
2 | COc1ccc2cc3[n+](cc2c1OC)CCc1cc2c(cc1-3)OCO2 [Berberine] |  |  |  |  |  |  | fails to show any inhibitory activity | 50 | 587 ± 103 | 1.2 ± 0.4 ×10^4 CFU/mL | failed to inhibit | failed to inhibit | 0 | 0
3 | CC[C@H]1OC(=O)[C@H](C)[C@@H](O[C@H]2C[C@@](C)(OC)[C@@H](O)[C@H](C)O2)[C@H](C)[C@@H](O[C@@H]2O[C@H](C)C[C@H](N(C)C)[C@H]2O)[C@](C)(OC)C[C@@H](C)C(=O)[C@H](C)[C@@H](O)[C@]1(C)O [CLR, Clarithromycin, reference compound] |  |  |  |  |  |  |  | 0.02 (≈ 0.0267 µM) |  |  |  |  |  | 
4 | COc1cc2c(cc1OC)-c1cc3ccc4c(c3c[n+]1CC2)OCO4 [Epiberberine] |  |  |  |  |  |  |  | 100 | 481 ± 92 | 1.3 ± 0.3 ×10^4 CFU/mL | failed to inhibit | failed to inhibit | 0 | 0
5 | COc1cc2c(cc1O)CC[n+]1cc3c(OC)c(OC)ccc3cc1-2 [Jatrorrhizine] |  |  |  |  |  |  |  | 100 | 552 ± 98 | 1.2 ± 0.3 ×10^4 CFU/mL | failed to inhibit | failed to inhibit | 0 | 0
6 | Cc1ncc([N+](=O)[O-])n1CCO [MET, Metronidazole, reference compound] |  |  |  |  |  |  |  | 0.5 (≈ 2.92 µM) |  |  |  |  |  | 
7 | COc1cc2c(cc1OC)-c1cc3ccc(OC)c(OC)c3c[n+]1CC2 [Palmatine] |  |  |  |  |  |  |  | 100 | 628 ± 110 | 1.2 ± 0.4 ×10^4 CFU/mL | failed to inhibit | failed to inhibit | 0 | 0
